Data set [1] has as its system PMA-induced inflammatory cytokines (IL-6 and IL-8) in HFDPC (human follicle dermal papilla cells). As to the kind of experiment: PMA-induced inflammatory cytokines (IL-6 and IL-8) in HFDPC. In kind it is cell-based. From the text: Still another example of this embodiment is application of VBE on decreasing PMA-induced inflammation (IL-6 and IL-8). […] Capsaicin, nonivamide, and minoxidil are effectless to PMA-induced IL-6, and IL-8.

Another data set deals with ROS generation in HFDPC. As to the kind of experiment: ROS generation with/without pollutant in HFDPC. The data set is classed as cell-based, human. Particulars: for ROS generation, pollutant-stimulated condition: pollutant-triggered; for ROS generation, basal condition: without pollutant (basal). From the text:
FIG. 4A to FIG. 4B respectively presents with/without pollutant-triggered ROS generation on HFDPC by VBE, and CAP (capsaicin). […] Hair follicle is a mini-organ of the skin which contains dermal papilla cells (DPC) in the bottom site surrounded with matrix cells (keratinocytes) and melanocytes. DPC play an important role to regulate matrix cell proliferation, differentiation and apoptosis during hair cycles, and matrix cells are responsible for forming the major structures of the hair shaft. In the above examples, we established an in vitro model to investigate hair loss mechanism caused by air pollution. Based on our data, SRM1649b (urban dust) PM2.5 is able to activate AhR pathway, enhance ROS generation, up-regulate gene expression of alopecia-related factors (TGF-β2, TNF-α and PTGS2) and stimulate inflammatory cytokines (IL-6, IL-8, and GM-CSF) in human hair follicle dermal papilla cells. […] The mechanism of air pollution induced hair loss is illustrated in FIG. 5.

Data set [2] concerns LPS-induced inflammatory cytokines (IL-6 and IL-8) in macrophages. The data set can be described thus: LPS-induced inflammatory cytokines (IL-6 and IL-8) in macrophages. In kind it is cell-based. From the text: One preferred example of this embodiment is application of VBE on decreasing LPS-induced inflammation (IL-6, and IL-8).
Data set [3] has as its system hair loss related genes expression (CYP1B1, TGF-β2, and TNF-α) in HFDPC. As to the kind of experiment: Pollutant-induced hair loss related genes expression in HFDPC. The data set is classed as cell-based, human. From the text: Still another example of this embodiment is application of VBE on decreasing pollutant-induced hair loss related genes expression (CYP1B1, TGF-β2, and TNF-α) on HFDPC. FIG. 3 presents pollutant-induced hair loss related genes expression (CYP1B1, TGF-β2, and TNF-α) by VBE, and DMF. DMF is 3′,4′-dimethoxyflavone, and is a AhR (aryl hydrocarbon receptor) antagonist. Pollutants usually generate damages though activating the transcription factor AhR.
(§1) FIG. 5 presents how to improve hair loss of human hair follicle dermal papilla cells with VBE according to the above examples. Hair follicle is a mini-organ of the skin which contains dermal papilla cells (DPC) in the bottom site surrounded with matrix cells (keratinocytes) and melanocytes. DPC play an important role to regulate matrix cell proliferation, differentiation and apoptosis during hair cycles, and matrix cells are responsible for forming the major structures of the hair shaft. In the above examples, we established an in vitro model to investigate hair loss mechanism caused by air pollution. Based on our data, SRM1649b (urban dust) PM2.5 is able to activate AhR pathway, enhance ROS generation, up-regulate gene expression of alopecia-related factors (TGF-β2, TNF-α and PTGS2) and stimulate inflammatory cytokines (IL-6, IL-8, and GM-CSF) in human hair follicle dermal papilla cells. […] The mechanism of air pollution induced hair loss is illustrated in FIG. 5.

Data set [4] relates to AhR pathway in human hair follicle dermal papilla cells. The data set can be described thus: Air pollution (SRM1649b urban dust PM2.5) in vitro hair loss model in HFDPC: AhR activity and GM-CSF. In kind it is cell-based.
Excerpt: as §1, with “Hair” for “FIG. 5 presents how to improve hair loss of human hair follicle dermal papilla cells with VBE according to the above examples. Hair”

In data set [5] the test system is anagen hairs and telogen hairs. The data set can be described thus: Clinical evaluation of VBE versus placebo, phototrichogram hair growth cycle analysis. In kind it is in vivo, human. The settings on record: topical once a day for 84 days, half-head versus placebo, subjects with androgenetic alopecia. Here is the method:
Another example of this embodiment is clinical evaluation of the effect of VBE versus placebo in the male and female subjects after repeated application of 84 days through. The clinical test is finished by Spincontrol, France. The evaluation was performed using phototrichogram for hair growth cycle analysis. 11 healthy subjects from 25 to 49 years with a chronic hair loss/alopecia of androgenetic origin were selected for this study.

In the next data set the test system is 5-alpha reductase. The data set can be described thus: 5-alpha reductase activity: DHT/Testosterone ratio in NHEK with [14C] testosterone. The data set is classed as cell-based, human.

SMILES strings stand for the structures.

On to `COc1cc(CNC(=O)CCCC/C=C/C(C)C)ccc1O` [Capsaicin], for which, in data set [1], the “PMA-induced IL-6” value is listed as “no effect” and the “PMA-induced IL-8” value is recorded as “no effect”. In addition, in the data set on ROS generation in HFDPC, the “ROS generation, pollutant-stimulated condition” value was “no effect” and the “ROS generation, basal condition” value is “no effect”. In data set [2], the “LPS-induced IL-6” value is “decreased” and the “LPS-induced IL-8” value is given as “decreased”.
For `COc1ccc(-c2cc(=O)c3ccccc3o2)cc1OC` [DMF, 3′,4′-dimethoxyflavone], in data set [3], the “pollutant-induced CYP1B1 gene expression” value is “reducing”, the “pollutant-induced TGF-β2 gene expression” value is given as “reducing” and the “pollutant-induced TNF-α gene expression” value is “reducing”.
Turning to `Nc1cc(N2CCCCC2)nc(N)[n+]1[O-]` [Minoxidil], in data set [1], the “PMA-induced IL-6” value was “no effect” and the “PMA-induced IL-8” value is given as “no effect”.
Consider `CCCCCCCCC(=O)NCc1ccc(O)c(OC)c1` [Nonivamide], for which, in data set [1], the “PMA-induced IL-6” value is given as “no effect” and the “PMA-induced IL-8” value was “no effect”. Besides, in data set [2], the “LPS-induced IL-6” value is “decreased” and the “LPS-induced IL-8” value is on record as “decreased”.
For `CCCCOCc1ccc(O)c(OC)c1` [VBE, vanillyl butyl ether], in data set [4], the AhR activity entry is recorded as “attenuating” and the GM-CSF production result is given as “attenuating”. In addition, in data set [5], the “Anagen (growing) hair” value was “increased”, the “Telogen (resting or shedding) hair” value is “reduced” and the “enhancement of ratio of Anagen to Telogen” value came out at 6%. Besides, in data set [1], the “PMA-induced IL-6” value was “decrease” and the “PMA-induced IL-8” value is “decrease”. In the data set on 5-alpha reductase (50 μg/ml), the “DHT/Testosterone ratio compared to control” value is recorded as 64%. In addition, the “DHT/Testosterone ratio, dose dependence” value in the data set on 5-alpha reductase (1.25 to 50 μg/ml) was “decreases DHT/Testosterone ratio in a dose dependent manner”. Further, in the data set with ROS generation in HFDPC, the “ROS generation, pollutant-stimulated condition” value is recorded as “decreased” and the “ROS generation, basal condition” value is on record as “decreased”. In data set [3], the “pollutant-induced CYP1B1 gene expression” value is recorded as “reduce”, the “pollutant-induced TGF-β2 gene expression” value is “reduce” and the “pollutant-induced TNF-α gene expression” value was “reduce”. Besides, in data set [2], the “LPS-induced IL-6” value is “decrease” and the “LPS-induced IL-8” value is “decrease”.
On to `CC(C)(C)NC(=O)[C@H]1CC[C@H]2[C@@H]3CC[C@H]4NC(=O)C=C[C@]4(C)[C@H]3CC[C@]12C` [finasteride], for which the “DHT/testosterone ratio compared to the control condition” value with 5-alpha reductase (finasteride reference) came to 1%.

Source of the values: patent US20190269626A1, “Hair Protection Effect of Vanillyl Alkyl Ether and the Application thereof” (CORUM INC., priority 2018, published 2019).
